Source: patent US8168651B2, “Protein kinase modulators” (Cylene Pharmaceuticals, Inc., priority 2008, dated 2012)
Read-outs that look alike come from different tables or passages of the source.

How the values were obtained:
[1] = system: HCT-116 human colorectal carcinoma cells; assay: Cell-proliferation assay using Alamar Blue dye; format: cell-based; details: Homo sapiens;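 note: cells exposed to compound for about 4 days, then Alamar Blue added and dye fluorescence read after about 4 h, compared with medium-only control wells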
MV-4-11 [2] = assay: Cell proliferation modulatory activity, MV-4-11; format: cell-based; details: Homo sapiens, MV4-11
K-562 [3] = assay: Cell proliferation modulatory activity, K-562; format: cell-based; details: Homo sapiens, K562
Flt3 = Flt3 (Homo sapiens (Human), UniProt P36888); assay: FLT-3 kinase activity in cell free in vitro assay; format: biochemical; details: cell-free assay
Flt3, sequence (P36888 27-993): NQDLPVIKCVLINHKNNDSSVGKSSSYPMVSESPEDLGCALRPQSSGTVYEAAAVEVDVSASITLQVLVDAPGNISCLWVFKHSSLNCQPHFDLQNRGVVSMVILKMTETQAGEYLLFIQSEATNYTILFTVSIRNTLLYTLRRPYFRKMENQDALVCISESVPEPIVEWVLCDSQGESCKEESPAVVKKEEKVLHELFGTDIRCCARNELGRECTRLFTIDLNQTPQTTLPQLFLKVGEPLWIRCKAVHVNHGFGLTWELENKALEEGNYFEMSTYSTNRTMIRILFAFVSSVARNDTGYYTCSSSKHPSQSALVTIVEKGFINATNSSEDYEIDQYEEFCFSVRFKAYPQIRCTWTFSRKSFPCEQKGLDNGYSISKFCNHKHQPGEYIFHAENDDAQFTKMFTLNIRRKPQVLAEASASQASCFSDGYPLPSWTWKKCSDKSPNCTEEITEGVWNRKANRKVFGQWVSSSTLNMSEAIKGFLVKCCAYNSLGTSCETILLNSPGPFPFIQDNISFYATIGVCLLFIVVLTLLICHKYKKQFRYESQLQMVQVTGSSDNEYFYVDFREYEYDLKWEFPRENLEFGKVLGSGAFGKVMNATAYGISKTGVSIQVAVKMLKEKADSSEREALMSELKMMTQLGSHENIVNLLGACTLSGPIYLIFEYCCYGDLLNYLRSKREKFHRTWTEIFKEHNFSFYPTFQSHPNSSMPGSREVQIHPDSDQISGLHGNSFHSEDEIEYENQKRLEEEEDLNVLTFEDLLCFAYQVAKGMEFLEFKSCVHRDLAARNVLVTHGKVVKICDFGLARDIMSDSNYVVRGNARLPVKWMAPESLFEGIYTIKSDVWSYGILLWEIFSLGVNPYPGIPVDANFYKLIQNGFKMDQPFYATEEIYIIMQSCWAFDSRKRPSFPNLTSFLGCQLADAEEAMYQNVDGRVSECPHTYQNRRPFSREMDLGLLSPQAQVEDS

recombinant human PIM1 = recombinant human PIM1 (Homo sapiens (Human), UniProt P11309); assay: PIM-1 kinase activity in cell-free in vitro assay; format: biochemical; details: for inhibition at 0.5 µM: 500 nM compound, read-out: PIM-1: % inh 500 nM
recombinant human PIM1, sequence (P11309 whole entry): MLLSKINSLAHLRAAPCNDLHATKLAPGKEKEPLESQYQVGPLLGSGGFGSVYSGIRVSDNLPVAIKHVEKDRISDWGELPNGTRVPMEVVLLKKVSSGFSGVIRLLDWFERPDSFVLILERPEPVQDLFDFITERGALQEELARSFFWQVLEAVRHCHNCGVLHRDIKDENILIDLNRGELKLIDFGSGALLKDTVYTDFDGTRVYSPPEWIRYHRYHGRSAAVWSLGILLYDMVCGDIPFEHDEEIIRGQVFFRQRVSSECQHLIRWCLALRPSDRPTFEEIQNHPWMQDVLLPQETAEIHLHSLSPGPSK

recombinant human CK2 = recombinant human CK2 (Homo sapiens (Human), UniProt P68400); assay: CK2 assay (cell-free, 33P-ATP filter plate); format: biochemical; details: cell-free assay; for inhibition at 0.5 µM: 500 nM compound, read-out: CK2: % inh 500 nM; for IC50: 15 um ATP, read-out: CK2 (15 um ATP) IC50
recombinant human CK2, sequence (P68400 whole entry): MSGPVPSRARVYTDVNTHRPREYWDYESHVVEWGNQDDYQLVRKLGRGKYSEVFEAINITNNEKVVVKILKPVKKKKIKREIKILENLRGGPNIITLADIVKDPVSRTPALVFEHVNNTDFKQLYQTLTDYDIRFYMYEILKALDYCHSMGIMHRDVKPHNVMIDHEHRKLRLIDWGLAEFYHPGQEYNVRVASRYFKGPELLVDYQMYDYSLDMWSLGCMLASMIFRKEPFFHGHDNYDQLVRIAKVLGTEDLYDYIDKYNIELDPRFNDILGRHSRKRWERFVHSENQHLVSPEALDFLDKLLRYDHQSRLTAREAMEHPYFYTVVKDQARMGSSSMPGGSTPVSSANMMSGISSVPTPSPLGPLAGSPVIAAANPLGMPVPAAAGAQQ
recombinant human CK2, sequence (P67870 whole entry partner): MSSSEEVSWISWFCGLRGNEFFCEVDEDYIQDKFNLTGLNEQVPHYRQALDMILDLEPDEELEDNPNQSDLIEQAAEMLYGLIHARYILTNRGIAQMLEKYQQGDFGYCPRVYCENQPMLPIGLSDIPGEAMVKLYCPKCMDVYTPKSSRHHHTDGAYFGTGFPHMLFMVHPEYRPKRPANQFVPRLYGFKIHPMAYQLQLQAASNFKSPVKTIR

MV-4-11 [4] = assay: Cell proliferation modulatory activity, MV-4-11; format: cell-based; details: Homo sapiens, MV4-11; MV-4-11 cells
K-562 [5] = assay: Cell proliferation modulatory activity, K-562; format: cell-based; details: Homo sapiens, K562; K-562 cells
Jurkat = assay: Cell proliferation modulatory activity, Jurkat; format: cell-based; details: Homo sapiens
K-562 [6] = assay: Cell proliferation modulatory activity, K-562; format: cell-based; details: Homo sapiens, K562; remark: listed apart in the source
[7] = HCT-116, HCT-116, second HCT-116 column (c8), read-out: HCT-116 (uM), cell proliferation modulatory activity
[8] = HCT-116, second HCT-116 column (c8), read-out: HCT-116 (uM) cell proliferation modulatory activity
[9] = HCT-116, read-out: HCT-116 (uM), cell proliferation modulatory activity, HCT-116, second HCT-116 column (c8)
[10] = HCT-116, read-out: HCT-116 (uM), cell proliferation modulatory activity, HCT-116, second column

| Structure (SMILES) | IC50 (MV-4-11 [2]) | IC50 (K-562 [3]) | inhibition at 0.5 µM (recombinant human PIM1; cell-free assay) | inhibition at 0.5 µM (recombinant human CK2) | IC50 (MV-4-11 [4]) | IC50 [1, 8] | IC50 (K-562 [5]) | IC50 (Flt3; read-out: FLT-3 (uM) IC50) | IC50 (Jurkat) | further results |
| --- | --- | --- | --- | --- | --- | --- | --- | --- | --- | --- |
| CN1CCN(C(=O)c2ccc3c(c2)nc(Nc2cccc(Cl)c2)c2ccncc23)CC1 | > 10 µM | > 10 µM | -28.4% | – | – | – | – | – | – | IC50 [1, 7]: > 10 µM; IC50 (Flt3; read-out: FLT-3): > 0.4 µM |
| NC(=O)c1ccc2c(c1)nc(Nc1ccc(F)c(Cl)c1)c1ccncc12 | – | – | -9.45% | 66.1% | 0.373 µM | > 10 µM | > 10 µM | 0.167 µM | – | – |
| Cc1cnc(CNC(=O)c2ccc3c(c2)nc(Nc2cccc(Cl)c2)c2ccncc23)cn1 | > 10 µM | > 10 µM | -19.8% | – | – | – | – | – | – | IC50 [1, 7]: > 10 µM; IC50 (Flt3; read-out: FLT-3): 0.362 µM |
| O=C(O)c1ccc2c(c1)nc(Nc1cccc(C(F)(F)F)c1)c1ccncc12 | 0.354 µM | > 10 µM | 88.8% | – | – | – | – | – | 3.15 µM | IC50 [1, 9]: 5.14 µM; IC50 (recombinant human PIM1; cell-free assay): 160 nM |
| Clc1cccc(Nc2nc3cc(-c4nnco4)ccc3c3cnccc23)c1 | – | – | -0.614% | 29.9% | 0.501 µM | 5.17 µM | > 10 µM | 0.236 µM | – | – |
| O=C(O)c1ccc2c(c1)nc(Nc1cccc(C(F)(F)F)c1)c1nc(NC3CC3)ncc12 [drawing 1596] | – | – | -17.3% | – | – | – | – | – | 3.13 µM | IC50 (Flt3; read-out: FLT-3): > 0.4 µM |
| CONC(=O)c1ccc2c(c1)nc(Nc1cccc(Cl)c1)c1ccncc12 | – | – | -15.6% | 14.2% | 0.691 µM | 4.54 µM | 2.61 µM | > 0.4 µM | – | – |
| Cc1ccccc1Nc1nc2cc(C(=O)O)ccc2c2cnccc12 | 0.985 µM | > 10 µM | 92.3% | – | – | – | – | – | 15.7 µM | IC50 [1, 7]: > 10 µM; IC50 (recombinant human PIM1; cell-free assay): 158 nM |
| O=C(O)c1ccc2c(c1)nc(Nc1ccc(Br)cc1F)c1ccncc12 | – | – | – | – | 7.26 µM | > 10 µM | > 10 µM | 0.087 µM | – | IC50 (recombinant human PIM1; cell-free assay): 339 nM |
| O=C(O)c1ccc2c(c1)nc(NCCc1cccc(Cl)c1)c1ccncc12 [drawing 1559] | – | – | – | – | – | – | – | – | – | IC50 (K-562 [6]): 9.18 µM; IC50 [1, 10]: > 10 µM; inhibition at 0.5 µM (recombinant human PIM1; cell-free): 43.1%; IC50 (recombinant human PIM1; cell-free): 1060 nM |
| C#Cc1cccc(Nc2nc3cc(C(=O)O)ccc3c3cnc(NCC4CC4)nc23)c1 [drawing 1606] | 0.128 µM | 0.25 µM | 3.08% | – | – | – | – | – | 0.424 µM | IC50 [1, 9]: > 10 µM |
| C#Cc1cccc(Nc2nc3cc(C(=O)O)ccc3c3cnc(NCC4CCCO4)nc23)c1 (centres unmarked) [drawing 1605] | 0.284 µM | > 10 µM | 1.48% | – | – | – | – | – | 2.04 µM | IC50 [1, 9]: > 10 µM |
| O=C(O)c1ccc2c(c1)nc(Nc1cc(F)cc(Cl)c1)c1ccncc12 | – | – | 101% | 98.7% | 0.25 µM | > 10 µM | 1.56 µM | 0.031 µM | – | IC50 (recombinant human PIM1; cell-free assay): 75 nM |
| NC(=O)c1ccc2c(c1)nc(Nc1cccc(C(F)(F)F)c1)c1ccncc12 | – | – | 1.09% | 34.4% | 0.12 µM | 4.28 µM | 2.46 µM | 0.006 µM | – | – |
| Cc1cccc(Nc2nc3cc(C(=O)O)ccc3c3cnccc23)c1 | 0.593 µM | > 10 µM | 86.7% | – | – | – | – | – | 3.45 µM | IC50 (recombinant human PIM1; cell-free assay): 177 nM |
| O=C(O)c1ccc2c(c1)nc(Nc1ccccc1)c1nc(NC3CC3)ncc12 | 0.195 µM | 0.494 µM | 18.4% | – | – | – | – | – | 2.42 µM | IC50 [1, 9]: 1.94 µM |

| Structure (SMILES) | IC50 (MV-4-11 [2]) | IC50 (K-562 [3]) | inhibition at 0.5 µM (recombinant human PIM1; cell-free assay) | inhibition at 0.5 µM (recombinant human CK2) | IC50 (MV-4-11 [4]) | IC50 [1, 8] | IC50 (K-562 [5]) | IC50 (Flt3; read-out: FLT-3 (uM) IC50) | IC50 (Jurkat) | further results |
| --- | --- | --- | --- | --- | --- | --- | --- | --- | --- | --- |
| O=C(O)c1ccc2c(c1)nc(Nc1cccc(Cl)c1)c1cnccc12 | – | – | 71.5% | -9.32% | > 10 µM | > 10 µM | > 10 µM | > 0.4 µM | – | IC50 (recombinant human PIM1; cell-free assay): 122 nM |
| O=C(O)c1ccc2c(c1)nc(Nc1cccc(Cl)c1)c1nc(NC3CC3)ncc12 | 0.257 µM | 0.158 µM | – | – | – | – | – | – | 1.29 µM | IC50 [1, 9]: 7.82 µM |
| O=C(O)c1ccc2nc(Nc3cccc(Cl)c3)c3ccncc3c2c1 | – | – | 11.9% | 67.8% | > 10 µM | > 10 µM | > 10 µM | > 0.4 µM | – | – |
| Clc1cccc(Nc2nc3cc(-c4nnc[nH]4)ccc3c3cnccc23)c1 | – | – | -19.3% | -2.18% | 1.06 µM | > 10 µM | 0.546 µM | 0.09 µM | – | – |
| NNC(=O)c1ccc2c(c1)nc(Nc1cccc(Cl)c1)c1ccncc12 | – | – | -10.8% | 34.9% | 2.14 µM | > 10 µM | > 10 µM | 0.075 µM | – | – |
| NC(=O)c1ccc2c(c1)nc(Nc1cc(F)cc(Cl)c1)c1ccncc12 | – | – | 5.67% | 55.9% | 0.222 µM | – | > 10 µM | 0.012 µM | – | – |
| Clc1cccc(Nc2nc3ccccc3c3cnccc23)c1 | – | – | -22.8% | -42.8% | 2.82 µM | > 10 µM | > 10 µM | 0.344 µM | – | – |
| O=C(NC1CC1)c1ccc2c(c1)nc(NC1CC1)c1nc(NC3CC3)ncc12 | 0.497 µM | > 10 µM | -11.9% | – | – | – | – | – | 0.436 µM | IC50 (recombinant human CK2): > 750 nM; IC50 [1, 7]: 0.818 µM |
| O=C(O)c1ccc2c(c1)nc(Nc1cccc(F)c1)c1ncncc12 | – | – | – | – | – | – | – | – | – | IC50 (K-562 [6]): 1.77 µM; IC50 [1, 10]: 7.1 µM; inhibition at 0.5 µM (recombinant human PIM1; cell-free): 77.8%; IC50 (recombinant human PIM1; cell-free): 367 nM |
| O=C(O)c1ccc2c(c1)nc(Nc1ccc(Cl)c(C(F)(F)F)c1)c1ccncc12 | > 10 µM | > 10 µM | 73.6% | – | – | – | – | – | 3.05 µM | IC50 [1, 9]: 3.99 µM; IC50 (recombinant human PIM1; cell-free assay): 408 nM |
| C#Cc1cccc(Nc2nc3cc(C(=O)O)ccc3c3cnc(NCCOCC)nc23)c1 | 0.141 µM | > 10 µM | 12.1% | – | – | – | – | – | 1.13 µM | – |
| C#Cc1cccc(Nc2nc3cc(C(=O)N(C)C)ccc3c3cncnc23)c1 | 4.62 µM | 9.79 µM | -27.8% | – | – | – | – | – | 1.18 µM | IC50 [1, 7]: 0.545 µM |
| O=C(O)c1ccc2c(c1)nc(NCCCc1ccccc1)c1ccncc12 [drawing 1561] | – | – | – | – | – | – | – | – | – | IC50 (K-562 [6]): 7.17 µM; IC50 [1, 10]: > 10 µM; inhibition at 0.5 µM (recombinant human PIM1; cell-free): 69.7%; IC50 (recombinant human PIM1; cell-free): 441 nM |
| CNC(=O)c1ccc2c(c1)nc(Nc1cccc(Cl)c1)c1ccncc12 | – | > 10 µM | -39.8% | – | – | – | – | – | 13.7 µM | IC50 (recombinant human CK2): > 750 nM; IC50 [1, 7]: > 10 µM; IC50 (Flt3; read-out: FLT-3): > 0.4 µM |
| O=C(O)c1ccc2c(c1)nc(Nc1ccc(F)c(Cl)c1)c1nc(NC3CC3)ncc12 | > 10 µM | > 10 µM | 6.63% | – | – | – | – | – | 1.54 µM | – |
